# Results: article PMC12519771 (BMC Cancer, 2025)
# Columns and labels:
# [1] = cited from earlier work
# [2] = Adverse events (CTCAE v5.0), safety analysis set
# Protocol: Adverse events were recorded continuously until 30 (± 7) days after discontinuation of study treatment and graded using the National Cancer Institute Common Terminology Criteria for Adverse Events v5.0.
# [3] = human, in vivo, po, 480 mg
# Text: After completion of Part A, patients continued to Part B of the study. […] Treatment with paclitaxel continued for at least six cycles unless the patient experienced unacceptable paclitaxel-related toxicity or disease progression.
# For patients with dose interruption in Cycle 2 before Week 2 Day 5, sample collection could be postponed to Week 2 Day 5 of the subsequent or later cycle, providing there was no dose interruption before Week 2 Day 5 of that cycle.
# [4] = oral administration, Western and Japanese patients
# [5] = related to capivasertib only per investigator, N = 16
compound,measurement,setting,value
"NC1(C(=O)N[C@@H](CCO)c2ccc(Cl)cc2)CCN(c2nc[nH]c3nccc2-3)CC1 [Capivasertib, capivasertib]",dose proportionality of plasma exposure (AUC over the dosing interval and Cmax),[1]; doses ranging from 80 mg to 800 mg,approximately dose-proportional
same,median tmax,[1]; [4],1 to 2 h
same,terminal elimination half-life (t½λz),[1]; [4],approximately 10 h
same,patients with adverse events leading to dose interruptions of capivasertib,[2]; N = 16,87.5%
same,patients with adverse events leading to dose reductions of capivasertib,[2]; N = 16,31.3%
same,"Anaemia, Grade ≥3",[2]; [5],0 n (%)
same,"Anaemia, any grade",[2]; [5],4 (25.0) n (%)
same,"Any adverse event, Grade ≥3",[2]; [5],9 (56.3) n (%)
same,"Any adverse event, any grade",[2]; [5],16 (100.0) n (%)
same,"Aspartate aminotransferase increased, Grade ≥3",[2]; [5],0 n (%)
same,"Aspartate aminotransferase increased, any grade",[2]; [5],1 (6.3) n (%)
same,"Blood albumin decreased, Grade ≥3",[2]; [5],0 n (%)
same,"Blood albumin decreased, any grade",[2]; [5],1 (6.3) n (%)
same,"Blood bilirubin increased, Grade ≥3",[2]; [5],0 n (%)
same,"Blood bilirubin increased, any grade",[2]; [5],2 (12.5) n (%)
same,"Blood creatinine increased, Grade ≥3",[2]; [5],0 n (%)
same,"Blood creatinine increased, any grade",[2]; [5],2 (12.5) n (%)
same,"Blood triglycerides increased, Grade ≥3",[2]; [5],0 n (%)
same,"Blood triglycerides increased, any grade",[2]; [5],0 n (%)
same,"Blood uric acid increased, Grade ≥3",[2]; [5],0 n (%)
same,"Blood uric acid increased, any grade",[2]; [5],1 (6.3) n (%)
same,"Diarrhoea, Grade ≥3",[2]; [5],0 n (%)
same,"Diarrhoea, any grade",[2]; [5],11 (68.8) n (%)
same,"Glycosylated haemoglobin increased, Grade ≥3",[2]; [5],0 n (%)
same,"Glycosylated haemoglobin increased, any grade",[2]; [5],0 n (%)
same,"Hyperglycaemia, Grade ≥3",[2]; [5],2 (12.5) n (%)
same,"Hyperglycaemia, any grade",[2]; [5],15 (93.8) n (%)
same,"Hypoalbuminaemia, Grade ≥3",[2]; [5],0 n (%)
same,"Hypoalbuminaemia, any grade",[2]; [5],4 (25.0) n (%)
same,"Hypocalcaemia, Grade ≥3",[2]; [5],0 n (%)
same,"Hypocalcaemia, any grade",[2]; [5],1 (6.3) n (%)
same,"Hypokalaemia, Grade ≥3",[2]; [5],0 n (%)
same,"Hypokalaemia, any grade",[2]; [5],1 (6.3) n (%)
same,"Hypomagnesaemia, Grade ≥3",[2]; [5],0 n (%)
same,"Hypomagnesaemia, any grade",[2]; [5],4 (25.0) n (%)
same,"Hyponatraemia, Grade ≥3",[2]; [5],0 n (%)
same,"Hyponatraemia, any grade",[2]; [5],5 (31.3) n (%)
same,"Hypophosphataemia, Grade ≥3",[2]; [5],0 n (%)
same,"Hypophosphataemia, any grade",[2]; [5],0 n (%)
same,"Nausea, Grade ≥3",[2]; [5],0 n (%)
same,"Nausea, any grade",[2]; [5],2 (12.5) n (%)
same,"Neutrophil count decreased, Grade ≥3",[2]; [5],0 n (%)
same,"Neutrophil count decreased, any grade",[2]; [5],1 (6.3) n (%)
same,"Oedema peripheral, Grade ≥3",[2]; [5],0 n (%)
same,"Oedema peripheral, any grade",[2]; [5],1 (6.3) n (%)
same,"Peripheral sensory neuropathy, Grade ≥3",[2]; [5],0 n (%)
same,"Peripheral sensory neuropathy, any grade",[2]; [5],0 n (%)
same,"Platelet count decreased, Grade ≥3",[2]; [5],0 n (%)
same,"Platelet count decreased, any grade",[2]; [5],1 (6.3) n (%)
same,"Proteinuria, Grade ≥3",[2]; [5],0 n (%)
same,"Proteinuria, any grade",[2]; [5],5 (31.3) n (%)
same,"Pyrexia, Grade ≥3",[2]; [5],0 n (%)
same,"Pyrexia, any grade",[2]; [5],6 (37.5) n (%)
same,"Rash (group term), Grade ≥3",[2]; [5],5 (31.3) n (%)
same,"Rash (group term), any grade",[2]; [5],10 (62.5) n (%)
same,"Stomatitis, Grade ≥3",[2]; [5],0 n (%)
same,"Stomatitis, any grade",[2]; [5],1 (6.3) n (%)
same,"Vomiting, Grade ≥3",[2]; [5],0 n (%)
same,"Vomiting, any grade",[2]; [5],1 (6.3) n (%)
same,"Weight decreased, Grade ≥3",[2]; [5],0 n (%)
same,"Weight decreased, any grade",[2]; [5],0 n (%)
same,"White blood cell count decreased, Grade ≥3",[2]; [5],1 (6.3) n (%)
same,"White blood cell count decreased, any grade",[2]; [5],2 (12.5) n (%)
same,"AUC(0–12), gMean gCV %",[3],5630 62.2 h×ng/mL
same,"AUC(0–48), gMean gCV %",[3],7244 58.8 h×ng/mL
same,"AUCinf, gMean gCV %",[3],7397 58.7 h×ng/mL
same,"CL/F, gMean gCV %",[3],64.9 L/h
same,"tmax, median (range)",[3],1.0 h
CC(=O)O[C@H]1C(=O)[C@@]2(C)[C@H]([C@H](OC(=O)c3ccccc3)[C@]3(O)C[C@H](OC(=O)[C@H](O)[C@@H](NC(=O)c4ccccc4)c4ccccc4)C(C)=C1C3(C)C)[C@]1(OC(C)=O)CO[C@@H]1C[C@@H]2O [paclitaxel],patients with adverse events leading to dose interruptions of paclitaxel,"[2]; human, in vivo",75.0%
same,patients with adverse events leading to dose reductions of paclitaxel,"[2]; human, in vivo",31.3%
